Target: T1, HCV NS3 helicase NS3h_1b(con1) (Hepatitis C virus genotype 1b, UniProt Q9WMX2)
T1 construct: truncated C-terminally His-tagged NS3 proteins lacking the N-terminal protease, called NS3h; His-tag (C); made in house
Experiment: MBHA screen of NCI mechanistic set library at 20 μM (percent inhibition, compound interference)
Type: biochemical
Conditions: compounds at 20 μM; for Inh. (%) (Inhibition): calculated from Equation 1
Procedure, shortened: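 Molecular beacon-based DNA unwinding assay; compounds screened at 20 μM in triplicate, with DMSO-only negative and 500 nM dT20 positive controls. Fluorescence (ex 643/em 670 nm) was read before and 30 min after adding ATP to 1 mM. Percent inhibition came from the change relative to DMSO controls; interference from pre-ATP fluorescence versus DMSO controls.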

[1] = MBHA with DNA substrate, assay interference calculated with Equation 2
[2] = assay interference calculated with Equation 2 (fluorescence vs DMSO-only controls before ATP)

T1 sequence (Q9WMX2 1192-1657): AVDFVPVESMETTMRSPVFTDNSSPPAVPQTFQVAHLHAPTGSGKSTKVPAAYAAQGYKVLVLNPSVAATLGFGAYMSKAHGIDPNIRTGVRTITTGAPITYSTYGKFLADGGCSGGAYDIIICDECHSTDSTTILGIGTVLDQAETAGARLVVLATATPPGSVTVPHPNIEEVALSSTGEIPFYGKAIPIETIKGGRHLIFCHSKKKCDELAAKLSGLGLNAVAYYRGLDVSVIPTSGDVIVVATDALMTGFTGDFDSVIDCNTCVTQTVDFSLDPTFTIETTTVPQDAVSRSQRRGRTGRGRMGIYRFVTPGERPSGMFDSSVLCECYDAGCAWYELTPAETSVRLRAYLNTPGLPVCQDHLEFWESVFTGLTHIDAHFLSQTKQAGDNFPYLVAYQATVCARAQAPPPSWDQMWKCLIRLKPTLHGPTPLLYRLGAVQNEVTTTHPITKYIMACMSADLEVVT

## COc1cccc2c1C(=O)c1c(O)c3c(c(O)c1C2=O)C[C@@](O)(C(C)=O)C[C@@H]3OC1CC(N(C)C)C(O)C(C)O1.Cl (stereo partly shown) [Compound 258812]
[1]
  Int.* (Ratio) (Interference): 0.64 Ratio
MBHA with DNA substrate
  Inh. (%) (Inhibition): 46.4%

## COc1ccc2c(NCCCCCCNc3c4ccccc4nc4cc(OC)ccc34)c3ccccc3nc2c1 [Compound 260610]
MBHA with a DNA substrate
  Inh. (%) (Inhibition): 10.7%
[2]
  Int.* (Ratio) (Interference): 0.27 Ratio

## Nc1cc2[nH]cnc2c(=O)[nH]1 [Compound 261726]
MBHA with a DNA substrate
  Inh. (%) (Inhibition): 9.6%
[2]
  Int.* (Ratio) (Interference): 0.96 Ratio

## COc1ccc(/C=C2\N=C(c3ccccc3)OC2=O)c(OCc2ccccc2)c1 [Compound 262665]
MBHA with a DNA substrate
  Inh. (%) (Inhibition): −3.4%
[2]
  Int.* (Ratio) (Interference): 0.95 Ratio

## C[n+]1ccc(-c2cc[n+](C)cc2)cc1.[Cl-].[Cl-] [Compound 263500]
[1]
  Int.* (Ratio) (Interference): 1.18 Ratio
MBHA with DNA substrate
  Inh. (%) (Inhibition): −8.7%

## NC1=NCN([C@@H]2O[C@H](CO)[C@@H](O)[C@H]2O)C(=O)N1 [Compound 264880]
MBHA with a DNA substrate
  Inh. (%) (Inhibition): −43.3%
[2]
  Int.* (Ratio) (Interference): 1.28 Ratio

## CC[C@@]1(O)C[C@H](O[C@H]2C[C@H](N(C)C)[C@H](O[C@H]3C[C@H](O)[C@H](O[C@H]4C[C@H](O)[C@H](O)[C@H](C)O4)[C@H](C)O3)[C@H](C)O2)c2c(cc3c(c2O)C(=O)c2c(O)ccc(O)c2C3=O)[C@H]1C(=O)OC [Compound 265211]
MBHA with a DNA substrate
  Inh. (%) (Inhibition): 8.9%
[2]
  Int.* (Ratio) (Interference): 0.82 Ratio

## COC1C(C)OC(OC2CC(C)(O)Cc3cc4c(c(O)c32)C(=O)c2c(O)cc3c(c2C4=O)OC2OC3(C)C(O)C(N(C)C)C2O)C(OC)C1(C)OC (stereo not shown) [Compound 265450]
[1]
  Int.* (Ratio) (Interference): 0.54 Ratio
MBHA with DNA substrate
  Inh. (%) (Inhibition): 38.9%

## NC1CCCCC1N.[Cl-].[Cl-].[Pt+2] (stereo not shown) [Compound 265459]
[1]
  Int.* (Ratio) (Interference): 1.00 Ratio
MBHA with DNA substrate
  Inh. (%) (Inhibition): −9.8%

## CCCCCCCCCCSCC(CO)NC(=O)/C=C/c1c(C)[nH]c(=O)[nH]c1=O (stereo not shown) [Compound 265473]
MBHA with a DNA substrate
  Inh. (%) (Inhibition): 11.0%
[2]
  Int.* (Ratio) (Interference): 0.96 Ratio

## O=C1N[C@@H]2C(=C[C@H](O)[C@@H](O)[C@H]2O)c2cc3c(c(O)c21)OCO3 [Compound 266535]
MBHA with a DNA substrate
  Inh. (%) (Inhibition): −5.9%
[2]
  Int.* (Ratio) (Interference): 0.87 Ratio

## CC(=O)O[C@@H]1C[C@H]2O[C@@H]3C=C(C)CC[C@]3(C)[C@]1(C)[C@]21CO1 [Compound 267033]
[1]
  Int.* (Ratio) (Interference): 1.04 Ratio
MBHA with DNA substrate
  Inh. (%) (Inhibition): 6.7%

## COc1ccc(S(=O)(=O)N/N=C/C(=O)O)cc1 [Compound 267213]
[1]
  Int.* (Ratio) (Interference): 1.05 Ratio
MBHA with DNA substrate
  Inh. (%) (Inhibition): 2.9%

## CC[C@@]1(O)C[C@H](O[C@H]2C[C@H](N(C)C)[C@H](O)[C@H](C)O2)c2c(cc3c(c2O)C(=O)c2c(O)ccc(O)c2C3=O)[C@H]1C(=O)OC [Compound 267229]
[1]
  Int.* (Ratio) (Interference): 0.49 Ratio
MBHA with DNA substrate
  Inh. (%) (Inhibition): 31.5%

## CC1OC(CC(=O)O)CC2=C1C(=O)c1c(O)cccc1C2=O (stereo not shown) [Compound 267461]
[1]
  Int.* (Ratio) (Interference): 1.01 Ratio
MBHA with DNA substrate
  Inh. (%) (Inhibition): −14.4%

## CCNC(=O)OCc1c(COC(=O)NCC)c(-c2ccc(Cl)c(Cl)c2)n2c1CCC2 [Compound 267700]
MBHA with a DNA substrate
  Inh. (%) (Inhibition): −24.0%
[2]
  Int.* (Ratio) (Interference): 1.04 Ratio

## C=C(C)C(=O)OC1CCC2(C)C(CCC3C2CCC2(C)C(c4ccc(=O)oc4)CC4OC432)C1 (stereo not shown) [Compound 267712]
MBHA with a DNA substrate
  Inh. (%) (Inhibition): −22.8%
[2]
  Int.* (Ratio) (Interference): 1.09 Ratio

## COc1cccc2c1C(=O)c1c(O)c3c(c(O)c1C2=O)C[C@@](O)(C(C)=O)C[C@@H]3O[C@H]1C[C@H](N(Cc2ccccc2)Cc2ccccc2)[C@H](O)[C@H](C)O1.Cl [Compound 268242]
[1]
  Int.* (Ratio) (Interference): 0.88 Ratio
MBHA with DNA substrate
  Inh. (%) (Inhibition): 30.6%

## CC(C)CCCCCCCCCCCCC(=O)NCC(=O)NC1C(C)OC(Nc2ncnc3nc[nH]c23)C(O)C1O (stereo not shown) [Compound 268251]
[1]
  Int.* (Ratio) (Interference): 0.96 Ratio
MBHA with DNA substrate
  Inh. (%) (Inhibition): 0.2%

## CC[n+]1c(-c2ccccc2)c2cc(N)ccc2c2ccc(N)cc21.[Br-] [Compound 268986]
[1]
  Int.* (Ratio) (Interference): 0.81 Ratio
MBHA with DNA substrate
  Inh. (%) (Inhibition): 36.0%

## CC1=C[C@H]2O[C@@H]3[C@H](O)[C@@H](O)[C@@](C)([C@@]2(CO)CC1)[C@]31CO1 [Compound 269142]
MBHA with a DNA substrate
  Inh. (%) (Inhibition): −19.6%
[2]
  Int.* (Ratio) (Interference): 1.07 Ratio

## COC(C(=O)C(O)C(C)O)C1Cc2cc3cc(OC4CC(OC5CC(O)C(O)C(C)O5)C(O)C(C)O4)c(C)c(O)c3c(O)c2C(=O)C1OC1CC(OC2CC(OC3CC(O)C(OC)C(C)O3)C(O)C(C)O2)C(O)C(C)O1 (stereo not shown) [Compound 269146]
[1]
  Int.* (Ratio) (Interference): 0.89 Ratio
MBHA with DNA substrate
  Inh. (%) (Inhibition): 15.0%

## CO[C@@H]1C[C@](C)(O)Cc2cc3c(c(O)c21)C(=O)c1c(O)cc2c(c1C3=O)O[C@@H]1O[C@@]2(C)[C@H](O)[C@@H](N(C)C)[C@@H]1O [Compound 269148]
MBHA with a DNA substrate
  Inh. (%) (Inhibition): −4.1%
[2]
  Int.* (Ratio) (Interference): 0.71 Ratio

## Cc1cc(NCCCCCCCNc2cc(C)nc3cc(N)ccc23)c2ccc(N)cc2n1 [Compound 273829]
[1]
  Int.* (Ratio) (Interference): 0.26 Ratio
MBHA with DNA substrate
  Inh. (%) (Inhibition): 105.0%

## COc1cc2c(cc1Oc1ccc(OC)c3c1CC1c4c(cc(OC)c(OC)c4-3)CCN1C)CC1c3c(cc(OC)c(OC)c3-2)CCN1C (stereo not shown) [Compound 274893]
[1]
  Int.* (Ratio) (Interference): 0.88 Ratio
MBHA with DNA substrate
  Inh. (%) (Inhibition): 16.2%

## C[C@@H](N)C(=O)NC(CO)C(O)C(N)C=O.Cl (stereo partly shown) [Compound 278619]
[1]
  Int.* (Ratio) (Interference): 1.15 Ratio
MBHA with DNA substrate
  Inh. (%) (Inhibition): 1.1%

## CC[C@H](C)C(=O)O[C@H]1CCC=C2C=C[C@H](C)[C@H](CC[C@@H]3C[C@@H](O)CC(=O)O3)[C@H]21 [Compound 281245]
MBHA with a DNA substrate
  Inh. (%) (Inhibition): −3.7%
[2]
  Int.* (Ratio) (Interference): 1.08 Ratio

## C=C1C(=O)OC2C1CC1OC2C(C)CCC/C(C)=C\CCC1(C)O (stereo not shown) [Compound 282752]
MBHA with a DNA substrate
  Inh. (%) (Inhibition): −5.5%
[2]
  Int.* (Ratio) (Interference): 1.00 Ratio

## CCCCCCCCCCCCCCCCCCOP(=O)([O-])OCC[N+](C)(C)C [Compound 282880]
[1]
  Int.* (Ratio) (Interference): 0.85 Ratio
MBHA with DNA substrate
  Inh. (%) (Inhibition): 5.8%

## CN(CO)c1nc(N(C)CO)nc(N(C)CO)n1 [Compound 283162]
[1]
  Int.* (Ratio) (Interference): 1.08 Ratio
MBHA with DNA substrate
  Inh. (%) (Inhibition): −12.0%

## O=C1NC(=O)[C@H]2[C@H]3C=C[C@@H]([C@@H]12)[C@@H]1[C@H]2C(=O)NC(=O)[C@H]2[C@H]31 [Compound 284356]
[1]
  Int.* (Ratio) (Interference): 1.10 Ratio
MBHA with DNA substrate
  Inh. (%) (Inhibition): 0.0%

## Nc1ncnc2c1nc(Cl)n2[C@@H]1O[C@@H]2COP(=O)(O)O[C@H]2[C@H]1O [Compound 284751]
MBHA with a DNA substrate
  Inh. (%) (Inhibition): −4.0%
[2]
  Int.* (Ratio) (Interference): 1.05 Ratio

## C=C(NC(=O)C(=C)NC(=O)c1csc(C2=N[C@@H]3c4csc(n4)C4NC(=O)c5csc(n5)C([C@](C)(O)[C@@H](C)O)NC(=O)[C@H]5CSC(=N5)/C(=C/C)NC(=O)C(C(C)O)NC(=O)c5csc(n5)C3(CC2)NC(=O)[C@H](C)NC(=O)C(=C)NC(=O)C(=C)NC(=O)C(C(C)C)N[C@@H]2C=Cc3c([C@@H](C)O)cc(nc3[C@H]2O)C(=O)OC4C)n1)C(N)=O (stereo partly shown) [Compound 285116]
[1]
  Int.* (Ratio) (Interference): 0.90 Ratio
MBHA with DNA substrate
  Inh. (%) (Inhibition): −0.3%

## Oc1cccc2cccnc12 [Compound 285166]
[1]
  Int.* (Ratio) (Interference): 0.95 Ratio
MBHA with DNA substrate
  Inh. (%) (Inhibition): −2.2%

## COc1cc2c(cc1O)N=CC1CCC(O)N1C2=O (stereo not shown) [Compound 285223]
MBHA with a DNA substrate
  Inh. (%) (Inhibition): −26.2%
[2]
  Int.* (Ratio) (Interference): 1.01 Ratio

## NC(=O)c1csc(C2OC(CO)C(O)C2O)n1 (stereo not shown) [Compound 286193]
[1]
  Int.* (Ratio) (Interference): 1.13 Ratio
MBHA with DNA substrate
  Inh. (%) (Inhibition): 1.1%

## CCN(CC)CCNC(=O)c1nn(-c2ccc(Cl)cc2)c2c1CCc1cc(OC)ccc1-2 [Compound 288010]
[1]
  Int.* (Ratio) (Interference): 1.01 Ratio
MBHA with DNA substrate
  Inh. (%) (Inhibition): 28.3%

## CC12CCC3C(CCC4CC(OC(=O)Cc5ccc(N(CCCl)CCCl)cc5)CCC43C)C1CCC(=O)N2 (stereo not shown) [Compound 290205]
[1]
  Int.* (Ratio) (Interference): 1.03 Ratio
MBHA with DNA substrate
  Inh. (%) (Inhibition): 34.9%

## O=C1C2=Nc3ccccc3C(O)N2c2ccccc21 (stereo not shown) [Compound 292147]
[1]
  Int.* (Ratio) (Interference): 1.07 Ratio
MBHA with DNA substrate
  Inh. (%) (Inhibition): −2.1%

## COC1CC(CC2CCC(C)C(C(C)C(=O)O)O2)OC2(OC(C)(C3CCC(C)(C4OC(C5OC(O)(CO)C(C)CC5C)CC4C)O3)CC2C)C1C (stereo not shown) [Compound 292567]
[1]
  Int.* (Ratio) (Interference): 0.85 Ratio
MBHA with DNA substrate
  Inh. (%) (Inhibition): −11.3%

## C=C1C(=O)OC2/C=C(/CO)[C@@H](OC(C)=O)C[C@H](O)/C(C)=C\[C@@H](OC(=O)[C@@H](C)CC)[C@@H]12 (stereo partly shown) [Compound 292663]
[1]
  Int.* (Ratio) (Interference): 0.95 Ratio
MBHA with DNA substrate
  Inh. (%) (Inhibition): 5.1%

From US9464064B2, “HCV helicase inhibitors and methods of use thereof” (University of Kansas, priority 2011, dated 2016)
